Source: patent US5449783A, “Diphenylthiazole derivative” (Hisamitsu Pharmaceutical Co., Inc., priority 1993, dated 1995)

How the values were obtained:
[1] = tested on: acetic acid-induced writhing; test: Mouse acetic acid-induced writhing experiment; type: in vivo, Male ddy mice; conditions: oral, 20 mg/kg, 30 minutes before 0.6% acetic acid; writhing counted for 10 minutes
Description: (Mouse acetic acid-induced writhing experiment)
Male ddy mice weighing about 23 g were divided into groups each comprising 7 to 9 animals.
30 minutes after a test compound was orally administered, a 0.6% acetic acid solution in physiological saline was intraperitoneally administered in a dose of 0.1 ml per 10 g of the body weight. From 5 minutes after the intraperitoneal administration, the frequency of writhing was counted for 10 minutes to determine the inhibition ratio by comparing with the frequency of writhing in the control group.

[2] = tested on: adjuvant arthritis (edema of the hind paw); test: Rat adjuvant arthritis experiment; type: in vivo, male Wistar rat; conditions: oral, 10 mg/kg once a day for 7 days
Description: (Rat adjuvant arthritis experiment)
0.1 ml of 6 mg/ml Mycobacterium butyricum suspension in liquid paraffin was intracutaneously injected into the tail root of each male Wistar rat weighing about 200 g. 20 days thereafter, rats clearly suffering from arthritis in the hind paw were selected and divided into groups each comprising 7 animals.
A test compound was orally administered in a dose as specified below once a day for 7 days. Then the effect of the test compound on the adjuvant arthritis was examined by using an inhibition ratio on the edema of the hind paw as an indicator. The inhibition ratio was calculated according to the following equation.

[3] = tested on: carrageenin-induced paw edema; test: Rat carrageenin-induced paw edema experiment A (oral); type: in vivo, Male Wistar rats; conditions: 10 mg/kg, 1 hour before carrageenin, 3 hours after induction
Description: Rat (carrageenin-induced paw edema experiment A)
Male Wistar rats weighing 140 to 160 g were divided into groups each comprising 8 animals.
0.1 ml of 1% carrageenin (PICNIN A, mfd. by Zushi Kagaku K.K.) was subcutaneously injected into the right hind paw of each rat and the edema thus induced was measured with the lapse of time by using a device for measuring foot edema. A test compound was suspended in a 0.5% CMC solution and orally administered to the rat 1 hour before the injection of carrageenin. The results expressed in the inhibition ratio (average) of each test group to the control group, to which no compound had been orally administered, 3 hours after the induction of the reaction are given in Table 2.

prostaglandin synthetase = target: T1, prostaglandin synthetase (Ovis aries, UniProt P05979); test: Effect of inhibiting biosynthesis of prostaglandin E2; type: biochemical, sheep; conditions: 10^-7; 10 minutes incubation
T1 construct: originating in sheep seminal vesicle; from tissue; host or cells: sheep seminal vesicle
T1 sequence (P05979 25-600): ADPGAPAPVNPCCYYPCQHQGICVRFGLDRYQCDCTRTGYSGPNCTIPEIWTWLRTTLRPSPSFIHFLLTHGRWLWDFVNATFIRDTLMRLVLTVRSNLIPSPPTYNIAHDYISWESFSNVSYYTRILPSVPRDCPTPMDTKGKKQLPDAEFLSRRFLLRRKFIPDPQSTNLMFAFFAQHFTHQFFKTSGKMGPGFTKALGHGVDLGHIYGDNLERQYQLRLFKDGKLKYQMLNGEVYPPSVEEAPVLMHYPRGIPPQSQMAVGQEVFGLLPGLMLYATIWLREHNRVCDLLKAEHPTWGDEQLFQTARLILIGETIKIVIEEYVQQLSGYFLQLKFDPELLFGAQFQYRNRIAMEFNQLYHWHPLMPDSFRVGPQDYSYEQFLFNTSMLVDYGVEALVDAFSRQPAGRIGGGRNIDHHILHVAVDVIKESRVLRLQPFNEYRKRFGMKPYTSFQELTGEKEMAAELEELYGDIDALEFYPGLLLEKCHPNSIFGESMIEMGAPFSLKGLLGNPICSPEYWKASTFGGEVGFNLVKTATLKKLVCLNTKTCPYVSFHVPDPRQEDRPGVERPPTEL
Description: (Effect of inhibiting biosynthesis of prostaglandin E2)
To a tris buffer solution containing 50 mM of glutathione and 50 mM of epinephrine were added prostaglandin synthetase (originating in sheep seminal vesicle) and a test drug dissolved in DMSO and incubated for 10 minutes. Then the reaction was ceased with 1 N hydrochloric acid under ice-cooling and the reaction mixture was extracted with ethyl ether. Then the extract was solidified by drying with nitrogen gas, dissolved in ethanol and developed on a TLC with a developer. Then the aimed part was scraped up and the radioactivity was measured with a liquid scintillation counter.

biosynthesis of 5-HETE = test: Effect of inhibiting biosynthesis of 5-HETE in neutrophiles; type: cell-based, Hartley guinea pigs; conditions: 10^-6; A 23187, 14C-arachidonic acid
Description: (Effect of inhibiting biosynthesis of 5-HETE)
Hartley guinea pigs weighing 300 to 500 g were used.
0.2% oyster glycogen was intraperitoneally administered to each guinea pig and, after 16 hours, neutrophiles of the animal were harvested. […] After ceasing the reaction with 1N hydrochloric acid under ice-cooling, the reaction mixture was extracted with ethyl acetate. Then the extract was solidified by drying with nitrogen gas, dissolved in ethanol and developed on a TLC with a developer. Then the aimed part was scraped up and the radioactivity was measured with a liquid scintillation counter.

[4] = tested on: carrageenin-induced paw edema; test: Rat carrageenin-induced paw edema experiment B (intravenous); type: in vivo, Male Wistar rats; conditions: 1 mg/kg, immediately before carrageenin, 3 hours after induction
Description: Rat (carrageenin-induced paw edema experiment B)
0.1 ml of 1% carrageenin (PICNIN A, mfd. by Zushi Kagaku K.K.) was subcutaneously injected into the right hind paw of each rat and the edema thus induced was measured with the lapse of time by using a device for measuring foot edema. A test compound was suspended in a 60% N,N-dimethylformamide solution in physiological saline and intravenously injected to the rat immediately before the injection of carrageenin.

[5] = tested on: carrageenin-induced paw edema; test: Rat carrageenin-induced paw edema experiment C (injected together with carrageenin into the paw); type: in vivo, Male Wistar rats; conditions: 3 hours after induction
Description: Rat (carrageenin-induced paw edema experiment C)
Male Wistar rats weighing 160 to 170 g were divided into groups each comprising 7 animals.
0.1 ml of 1% carrageenin (PICNIN A, mfd. by Zushi Kagaku K.K.) containing a test compound was subcutaneously injected into the right hind paw of each rat and the edema thus induced was measured with the lapse of time by using a device for measuring foot edema.

[6] = as stated by prior reference A; cited from earlier work
[7] = as stated by prior reference A; cited from earlier work; remark: listed apart in the source
platelet aggregation = conditions: as stated by prior reference A; cited from earlier work

| Structure (SMILES) | Inhibition ratio [1] [%] | Inhibition ratio [2] [%] | Inhibition ratio [3] [%] | Inhibition ratio (prostaglandin synthetase) [%] | Inhibition ratio (biosynthesis of 5-HETE) [%] | Inhibition ratio [4] [%] | Inhibition ratio ([5]; 0.003 mg/kg) [%] | Inhibition ratio ([5]; 0.03 mg/kg) [%] | antiinflammatory and analgesic effects (in words) [6] | hypocholesterolemic effect (in words) [7] | platelet aggregation inhibiting effect (in words) (platelet aggregation) |
| --- | --- | --- | --- | --- | --- | --- | --- | --- | --- | --- | --- |
| COc1ccc(-c2sc(NS(=O)(=O)C(F)(F)F)nc2-c2ccccc2)cc1 [Ex. 32] | 28.6 | 34.6 | 52.3 | 52.2 | 44.8 | 48.1 | 50.4 | – | – | – | – |
| COc1ccc2c(c1)c(CC(=O)O)c(C)n2C(=O)c1ccc(Cl)cc1 [indomethacin, reference compound] | – | – | – | – | – | 47.4 | – | 44.7 | – | – | – |
| CC(Cc1ccc(O)c(O)c1)C(C)Cc1ccc(O)c(O)c1 (centres unmarked) [NDGA, nordihydroguairetic acid, reference compound] | – | – | – | – | 43.0 | – | – | – | – | – | – |
| O=[N+]([O-])c1ccc(-c2sc(NS(=O)(=O)C(F)(F)F)nc2-c2ccccc2)cc1 [Ex. 17] | 36.3 | 35.3 | 23.9 | 48.1 | 47.3 | 36.6 | 37.1 | – | – | – | – |
| COc1ccc(-c2nc(NS(=O)(=O)C(F)(F)F)sc2-c2ccccc2)cc1 [Ex. 10] | 46.1 | 45.6 | 46.8 | 57.2 | 45.1 | 52.8 | 50.7 | – | – | – | – |
| O=S(=O)(Nc1nc(-c2ccccc2)c(-c2ccccc2)s1)C(F)(F)F [Ex. 1, 2-trifluoromethanesulfonylamino-4,5-diphenylthlazole] | 24.6 | 36.6 | 44.9 | 45.5 | 40.5 | 41.3 | 44.2 | – | – | – | – |
| CC(=O)N(C)c1nc(-c2ccccc2)c(-c2ccccc2)s1 [2-(N-methyl-N-acetyl)amino-4,5-diphenylthiazole] | – | – | – | – | – | – | – | – | weak or scarcely any | hypocholesterolemic effect | platelet aggregation inhibiting effect |
| CNc1nc(-c2ccccc2)c(-c2ccccc2)s1 [2-methylamino-4,5-diphenyl-thiazole] | – | – | – | – | – | – | – | – | weak or scarcely any | hypocholesterolemic effect | platelet aggregation inhibiting effect |
| O=S(=O)(Nc1nc(-c2ccccc2)c(-c2ccc(F)cc2)s1)C(F)(F)F [Ex. 37] | 18.1 | 44.9 | 56.2 | 43.9 | 48.7 | 46.4 | 49.8 | – | – | – | – |
| c1ccc(-c2nc(N3CCOCC3)sc2-c2ccccc2)cc1 [2-morpholino-4,5-diphenylthiazole] | – | – | – | – | – | – | – | – | weak or scarcely any | hypocholesterolemic effect | platelet aggregation inhibiting effect |
